One data set has as its system HeLa Cells. The experiment in a line: pHH3(S10), Mitotic Cells, and DNA Content Assays. It is filed as cell-based. The conditions noted are these: Homo sapiens, 23 hours exposure. The procedure: HeLa Cells are plated at 200 cells/well in 96 well […] BIOCOAT™ plates, and are incubated in MEM (Minimum Essential Medium) with 10% FBS (Fetal Bovine Serum) in 37° C., 5% CO2 for 24 hours. Cells are treated by adding compound (in 0.25% DMSO) to the medium, dosing at 10 points across the range 0.5 μM to 0.0098 μM. After 23 hours exposure to the compounds, cells are fixed, for example with the PREFER™ fixative for 30 min then are permeablized with 0.1% TRITON® X100 in phospate buffered saline (PBS) solution for 15 min. Cells are washed 3 times with PBS then digested with 50 μg/mL RNAse. Primary antibody, anti-phosphohistone H3 Serine 10, is added at 1:500 in PBS with 1% bovine serum albumin (BSA) to the cells over night at 4° C. After 3 PBS washes, cells are incubated with Alexa488 labeled secondary antibody for 1 hour at room temperature. Again they are washed 3 times with PBS, and then 15 μM propidium iodide is added for 30 min to stain nuclei. Fluorescence Plates are scanned with ACUMEN EXPLORER™ [Laser-scanning fluorescence microplate cytometer (comprising of 488 nm argon ion laser excitation and multiple photomultiplier tube detection), manufactured by TTP LABTECH LTD] to measure phosphohistone H3, DNA content and mitotic cells as measured by DNA condensation. Image analysis are based on cellular fluorescent signals for identifying cells in different subpopulations. pHH3(S10) positive cells are identified by mean intensity at 500-530 nm above the threshold. Total intensity at 655-705 nm from propidium iodide/DNA is used to identify individual cells (cells with DNA content from 2N to 4N) and subpopulations in cell cycle (2N cells, 4N cells). Peak intensity at 575-640 nm is used to identify DNA condensation that is used as the marker to identify mitotic cells among 4N cells. Assay outputs are percentage of each identified subpopulations, % pHH3, % 2N, % 4N, % mitotic and total cell number. The EC50 is determined by curve fitting to a four parameter logistic for each output using ACTIVITY BASE™.

Data set [1] addresses T1, Plk1-Flag-His6 tag fusion enzyme (Homo sapiens, UniProt P53350).
T1 construct: FLAG (C); His6 (C); made in house; host or cells: Sf9 insect cells (baculovirus, pFastBac), treated with okadaic acid before harvest; The substrate was made in E. coli BL21 (pGEX-2T)
Put plainly: Plk1 Inhibition Assay. The conditions noted are these: absolute IC50, 5.0 μM ATP, GST-Cdc25c (1-206) substrate, 60 min; MSR 3.6. It is filed as biochemical. From the text: Human Plk1 cDNA may be directly linked at one of its termini with a polynucleotide sequence expressing a His6 tag, such as the C-terminal FLAG-His6 tag, and inserted into an appropriate expression vector, such as a pFastBac™ vector (Invitrogen) and transfected into an appropriate system, such as baculovirus similar to what has been reported by Yue-Wei Qian, et al., Science, 282, 1701 (1998) for xPlkk1. If a viral expression system is used, then the virus (e.g., baculovirus bearing a Plk1-Flag-His6 tag polynucleotide construct) is infected into a culture of a suitable host cell, such as Sf9 cells. […]
Plk1 kinase reactions contain Plk1-Flag-His6 tag fusion enzyme (0.2 ng/μL) in a buffer containing 50 mM HEPES, pH 7.3, 1.0 mM dithiothreitol, 5.0 μM ATP, 10 mM MgCl2, 0.01% TRITON® X-100, 0.4 μCi ^33P-ATP, and […] GST-Cdc25c (1-206) peptide. […] Wells are dried before addition of 40 μL of MicroScint™20 (Packard) and then counted on a Wallac MICROBETA® Jet. The percentage inhibition values from the 10-point concentration response data are subsequently analyzed, for example, using ACTIVITY BASE™ software (IDBS), using a 4-parameter logistic equation. Absolute IC50 values are calculated from the resulting curve fit.

A further data set concerns HCT116 cells. The experiment in a line: Antiproliferative Assay. It counts as cell-based. Particulars: Homo sapiens, HCT-116, 72 hours, Alamar Blue, n=2, MSR 3.1. How it is done:
The effects of compounds on cell proliferation can be determined using cells and cell proliferation methods well-known in the art (Robert C. Squatrito et al., Gynecological Oncology, 58, 101-105, (1995)). For example, HCT116 cells, which may be obtained from the American Type Culture Collection, may be seeded at ˜2000 cells/well in 96-well plates and allowed to attach overnight in a humidified CO2 incubator at 37° C. Following the 20-24 hour incubation, half-log serially diluted compounds are added and the plates are returned to the incubator. After an appropriate length of exposure (e.g., 72 hours), cell proliferation is estimated using well-known methods. In one method, 10 μL of a tetrazolium salt, such as Alamar Blue™ is added to the cell plates.

The conditions of data set [2]: in man, phase II clinical trials; cited from earlier work.
A further data set relates to HCT116. Particulars: HCT116 murine xenograft; cited from earlier work.
The conditions of data set [3]: in man; cited from earlier work.
For the next data set, the system named is NCIH460. The conditions noted are these: NCIH460 murine xenograft; cited from earlier work.
In the next data set the test system is A549. The conditions noted are these: A549 murine xenograft; cited from earlier work.

Molecules are shown by their SMILES. Like-named read-outs stand apart in the source and are kept apart here.

T1 sequence (P53350 whole entry, the tested form may be a part): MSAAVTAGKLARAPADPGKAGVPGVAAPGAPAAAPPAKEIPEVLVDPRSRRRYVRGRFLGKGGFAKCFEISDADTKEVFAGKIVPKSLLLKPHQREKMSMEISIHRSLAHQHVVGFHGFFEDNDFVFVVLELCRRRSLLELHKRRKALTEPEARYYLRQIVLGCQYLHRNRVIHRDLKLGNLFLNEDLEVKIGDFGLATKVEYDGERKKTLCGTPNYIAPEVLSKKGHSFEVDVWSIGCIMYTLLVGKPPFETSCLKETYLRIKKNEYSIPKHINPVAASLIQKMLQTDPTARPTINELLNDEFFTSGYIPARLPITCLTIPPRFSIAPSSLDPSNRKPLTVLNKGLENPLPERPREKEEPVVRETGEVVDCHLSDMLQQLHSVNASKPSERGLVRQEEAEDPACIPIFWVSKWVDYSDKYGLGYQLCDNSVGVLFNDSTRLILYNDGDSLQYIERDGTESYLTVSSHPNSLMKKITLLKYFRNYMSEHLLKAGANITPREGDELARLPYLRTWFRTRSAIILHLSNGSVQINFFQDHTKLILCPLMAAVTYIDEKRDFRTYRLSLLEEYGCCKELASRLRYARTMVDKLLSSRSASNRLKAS

What is called EC50 is the concentration at which the effect is half-maximal. One may read the IC50 as the concentration at which inhibition is half-maximal. Low readings indicate greater potency, high ones weaker potency. On to `CC(N)c1ccc(F)cc1-c1cccc2cc(-c3nc(NCCn4ccnn4)ncc3F)sc12` (racemic) [Example 57, N-(2-(1H-1,2,3-Triazol-1-yl)ethyl)-4-(7-(2-(1-amino-ethyl)-5-fluorophenyl)-benzo[b]thiophen-2-yl)-5-fluoropyrimidin-2-amine], for which the EC50 in the data set on HeLa Cells (MSR 2.4, read-out: DNA content EC50) is 40 nM; in the data set on HeLa Cells (MSR 2.5, read-out: mitotic EC50), 36 nM; with HeLa Cells (MSR 2.6, read-out: pHH3(s10) EC50) it was 37 nM. Further, the values for the IC50 (in data set [1]; in the data set with HCT116 cells) were 11 nM and 119 nM, respectively.
Regarding `CC[C@@H]1C(=O)N(C)c2cnc(Nc3ccc(C(=O)NC4CCN(C)CC4)cc3OC)nc2N1C1CCCC1` [BI-2536], the dose-limiting toxicity entry in data set [2] is listed as “dose limited by myelosupression”. The “activity in preclinical model” value in the data set with HCT116, in the data set with NCIH460 and in the data set with A549 was “demonstrated activity” each time. Further, the “clearance (CL)” value in data set [3] is greater than 1000 mL/min.
